In patent US20210346506A1, “PRODRUG OF ITRACONAZOLE AND USES THEREOF” (priority 2020, published 2021):

Assays:
[1] = Compound stability test in mouse blood; assay type: in vitro ADME; details: 37° C., 1 μM; for half-life at 1 μM: male, CD-1, in vitro half-life in mouse blood; for Remaining Percentages (%): mouse blood
Method: (§1) One (1) mM test compound working solution was prepared in DMSO. One (1) mM propantheline working solution was prepared in acetonitrile, wherein propantheline was used as positive control in this assay.
(§2) Ten (10) μL of each test compound solution and the control compound solution were respectively added into a 96 deep well plate, and 40 μL of acetonitrile:water (V/V=1:1) was added to each well to dilute the 1 mM test compound solution to 200 μM working solution.
(§3) Mouse blood (male CD-1 mouse blood, Pharmaron, Lot# PH-ADME-Mouse-20180329) or human blood (Pharmaron, Lot# PH-ADME-Human-20180329) of 398 μL was added to each well of an incubation plate, and then the incubation plate was pre-warmed at 37° C. for 15 minutes. After the pre-incubation, 2 μL of 200 μM working solution prepared above was spiked to the pre-warmed 398 μL blood to reach a final concentration of 1 μM. The final concentration of DMSO was 0.1% and the final concentration of acetonitrile was 0.2%. The assay was performed in duplicate.
(§4) The incubation plate was incubated at 37° C. water bath with shaking at 50 rpm, and aliquots of 50 μL were taken from each well of the incubation plate at 0, 10, 30, 60, 90, 120 and 180 minutes.
(§5) The reaction was stopped by the addition of 50 μL of pure water. The plate was vortexed for 30 seconds at 1,000 rpm and then added with 300 μL of cold acetonitrile containing internal standards (100 nM aprozolam, 200 nM caffeine, 100 nM tolbutamide).
(§6) All samples were vortexed for 10 minutes, followed by centrifugation at 14,000 rpm for 15 minutes to precipitate proteins. 100 μL of each supernatant was transferred to a new plate, and diluted with ultrapure water according to the LC-MS signal response and peak shape.
(§7) Samples were analyzed by LC-MS/MS.
(§8) • LC system: ACQUITY UPLC® I-Class • MS analysis: Waters XEVO® TQ-D with an ESI interface • Column temperature: 40° C. • Injection volume: 3 μL • Column: Waters XSelect HSS T3 C18, 2.5 μm, 2.1×50 mm column • Mobile phase: 0.1% formic acid in water (A) and 0.1% formic acid in acetonitrile (B)
(§9) • Ion source: Turbo spray • Ionization model: ESI • Scan type: MRM • Cone gas: 150 L/h • Desolvation gas: 1000 L/h • Desolvation temperature: 500° C. • Capillary voltage: 3.00 KV
(§10) All calculations were carried out using Microsoft Excel. Peak area ratios were determined from extracted ion chromatograms, and percent compounds remaining at each time point were calculated by the following equation:
(§11) Remaining Percentaget min(%)=Peak Area Ratiot min/Peak Area Ratio0 min×100, where Peak Area Ratiot min referred to peak area ratio of control and test compounds at t min; and Peak Area Ratio0 min referred to peak area ratio of control and test compounds at zero time point. The in vitro half-life (in vitro t1/2) was determined from the slope value: In vitro T1/2=−(0.693/k).

[2] = Compound stability test in human blood; assay type: in vitro ADME; details: 37° C., 1 μM; for Remaining Percentages (%): human blood; for half-life at 1 μM: in vitro half-life in human blood
Method: as §1, §2, §3, §4, §5, §6, §7, §8, §9, §10, §11

Compound: CCC(C)n1ncn(-c2ccc(N3CCN(c4ccc(OCC5COC(Cn6c[n+](COC(=O)C(C)(C)C)cn6)(c6ccc(Cl)cc6Cl)O5)cc4)CC3)cc2)c1=O.[Cl-] (stereo not shown) [Compound 5]
- half-life at 1 μM [1]: 4.84 min
- Remaining Percentages (%) ([1]; 0 min): 100%
- Remaining Percentages (%) ([1]; 10 min): 23.9%
- Remaining Percentages (%) ([1]; 30 min): 1.48%
- Remaining Percentages (%) ([1]; 60 min): BLOD
- Remaining Percentages (%) ([1]; 90 min): BLOD
- Remaining Percentages (%) ([1]; 120 min): BLOD
- Remaining Percentages (%) ([1]; 180 min): BLOD
- Remaining Percentages (%) ([2]; 0 min): 100%
- Remaining Percentages (%) ([2]; 10 min): 69.4%
- Remaining Percentages (%) ([2]; 30 min): 30.4%
- Remaining Percentages (%) ([2]; 60 min): 9.76%
- Remaining Percentages (%) ([2]; 90 min): 5.50%
- Remaining Percentages (%) ([2]; 120 min): 2.08%
- Remaining Percentages (%) ([2]; 180 min): BLOD
- half-life at 1 μM [2]: 18.1 min

Compound: CC(C)[N+](C)(CCOC(=O)C1c2ccccc2Oc2ccccc21)C(C)C [Propantheline, propantheline, reference compound]
- half-life at 1 μM [1]: 38.8 min
- Remaining Percentages (%) ([1]; 0 min): 100%
- Remaining Percentages (%) ([1]; 10 min): 88.8%
- Remaining Percentages (%) ([1]; 30 min): 62.4%
- Remaining Percentages (%) ([1]; 60 min): 34.8%
- Remaining Percentages (%) ([1]; 90 min): 20.4%
- Remaining Percentages (%) ([1]; 120 min): 12.3%
- Remaining Percentages (%) ([1]; 180 min): 4.44%
- Remaining Percentages (%) ([2]; 0 min): 100%
- Remaining Percentages (%) ([2]; 10 min): 85.5%
- Remaining Percentages (%) ([2]; 30 min): 55.8%
- Remaining Percentages (%) ([2]; 60 min): 29.2%
- Remaining Percentages (%) ([2]; 90 min): 15.2%
- Remaining Percentages (%) ([2]; 120 min): 6.83%
- Remaining Percentages (%) ([2]; 180 min): 1.84%
- half-life at 1 μM [2]: 32.8 min

Compound: CCC(C)n1ncn(-c2ccc(N3CCN(c4ccc(OCC5COC(Cn6c[n+](C)cn6)(c6ccc(Cl)cc6Cl)O5)cc4)CC3)cc2)c1=O.[Cl-] (stereo not shown) [Compound 1]
- half-life at 1 μM [1]: 1.77 min
- Remaining Percentages (%) ([1]; 0 min): 100%
- Remaining Percentages (%) ([1]; 10 min): 2.01%
- Remaining Percentages (%) ([1]; 30 min): 0.00%
- Remaining Percentages (%) ([1]; 60 min): 0.00%
- Remaining Percentages (%) ([1]; 90 min): 0.00%
- Remaining Percentages (%) ([1]; 120 min): 0.00%
- Remaining Percentages (%) ([1]; 180 min): 0.00%
- Remaining Percentages (%) ([2]; 0 min): 100%
- Remaining Percentages (%) ([2]; 10 min): 68.5%
- Remaining Percentages (%) ([2]; 30 min): 32.6%
- Remaining Percentages (%) ([2]; 60 min): 12.3%
- Remaining Percentages (%) ([2]; 90 min): 7.80%
- Remaining Percentages (%) ([2]; 120 min): 2.02%
- Remaining Percentages (%) ([2]; 180 min): 0.36%
- half-life at 1 μM [2]: 23.1 min

Compound: CCCOC(=O)OC[n+]1cnn(CC2(c3ccc(Cl)cc3Cl)OCC(COc3ccc(N4CCN(c5ccc(-n6cnn(C(C)CC)c6=O)cc5)CC4)cc3)O2)c1.[Cl-] (stereo not shown) [Compound 7]
- half-life at 1 μM [1]: 7.12 min
- Remaining Percentages (%) ([1]; 0 min): 100%
- Remaining Percentages (%) ([1]; 10 min): 37.3%
- Remaining Percentages (%) ([1]; 30 min): BLOD
- Remaining Percentages (%) ([1]; 60 min): BLOD
- Remaining Percentages (%) ([1]; 90 min): BLOD
- Remaining Percentages (%) ([1]; 120 min): BLOD
- Remaining Percentages (%) ([1]; 180 min): BLOD
- Remaining Percentages (%) ([2]; 0 min): 100%
- Remaining Percentages (%) ([2]; 10 min): 25.3%
- Remaining Percentages (%) ([2]; 30 min): BLOD
- Remaining Percentages (%) ([2]; 60 min): BLOD
- Remaining Percentages (%) ([2]; 90 min): BLOD
- Remaining Percentages (%) ([2]; 120 min): BLOD
- Remaining Percentages (%) ([2]; 180 min): BLOD
- half-life at 1 μM [2]: 5.07 min

Compound: CCC(C)n1ncn(-c2ccc(N3CCN(c4ccc(OCC5COC(Cn6c[n+](CC)cn6)(c6ccc(Cl)cc6Cl)O5)cc4)CC3)cc2)c1=O.[Cl-] (stereo not shown) [Compound 2]
- half-life at 1 μM [1]: 11.8 min
- Remaining Percentages (%) ([1]; 0 min): 100%
- Remaining Percentages (%) ([1]; 10 min): 40.1%
- Remaining Percentages (%) ([1]; 30 min): 16.2%
- Remaining Percentages (%) ([1]; 60 min): 3.79%
- Remaining Percentages (%) ([1]; 90 min): 0.90%
- Remaining Percentages (%) ([1]; 120 min): 0.175%
- Remaining Percentages (%) ([1]; 180 min): 0.00%
- Remaining Percentages (%) ([2]; 0 min): 100%
- Remaining Percentages (%) ([2]; 10 min): 60.3%
- Remaining Percentages (%) ([2]; 30 min): 26.1%
- Remaining Percentages (%) ([2]; 60 min): 8.47%
- Remaining Percentages (%) ([2]; 90 min): 3.59%
- Remaining Percentages (%) ([2]; 120 min): 1.66%
- Remaining Percentages (%) ([2]; 180 min): 0.30%
- half-life at 1 μM [2]: 15.6 min

Compound: CCC(C)n1ncn(-c2ccc(N3CCN(c4ccc(OCC5COC(Cn6c[n+](COC(=O)OC(C)C)cn6)(c6ccc(Cl)cc6Cl)O5)cc4)CC3)cc2)c1=O.[Cl-] (stereo not shown) [Compound 8]
- half-life at 1 μM [1]: 21.9 min
- Remaining Percentages (%) ([1]; 0 min): 100%
- Remaining Percentages (%) ([1]; 10 min): 71.2%
- Remaining Percentages (%) ([1]; 30 min): 40.2%
- Remaining Percentages (%) ([1]; 60 min): 14.8%
- Remaining Percentages (%) ([1]; 90 min): 7.0%
- Remaining Percentages (%) ([1]; 120 min): 3.99%
- Remaining Percentages (%) ([1]; 180 min): 1.03%
- Remaining Percentages (%) ([2]; 0 min): 100%
- Remaining Percentages (%) ([2]; 10 min): 31.6%
- Remaining Percentages (%) ([2]; 30 min): 1.40%
- Remaining Percentages (%) ([2]; 60 min): 0.785%
- Remaining Percentages (%) ([2]; 90 min): 0.616%
- Remaining Percentages (%) ([2]; 120 min): BLOD
- Remaining Percentages (%) ([2]; 180 min): BLOD
- half-life at 1 μM [2]: 6.03 min

Compound: CCC(C)n1ncn(-c2ccc(N3CCN(c4ccc(OCC5COC(Cn6c[n+](COC(=O)C(C)C)cn6)(c6ccc(Cl)cc6Cl)O5)cc4)CC3)cc2)c1=O.[Cl-] (stereo not shown) [Compound 4]
- half-life at 1 μM [1]: 6.03 min
- Remaining Percentages (%) ([1]; 0 min): 100%
- Remaining Percentages (%) ([1]; 10 min): 31.5%
- Remaining Percentages (%) ([1]; 30 min): 4.04%
- Remaining Percentages (%) ([1]; 60 min): BLOD
- Remaining Percentages (%) ([1]; 90 min): BLOD
- Remaining Percentages (%) ([1]; 120 min): BLOD
- Remaining Percentages (%) ([1]; 180 min): BLOD
- Remaining Percentages (%) ([2]; 0 min): 100%
- Remaining Percentages (%) ([2]; 10 min): 61.0%
- Remaining Percentages (%) ([2]; 30 min): 30.2%
- Remaining Percentages (%) ([2]; 60 min): 8.93%
- Remaining Percentages (%) ([2]; 90 min): 4.67%
- Remaining Percentages (%) ([2]; 120 min): BLOD
- Remaining Percentages (%) ([2]; 180 min): BLOD
- half-life at 1 μM [2]: 17.7 min
